# Measurements published in paper PMC8305076, “Comprehensive Evaluation of Biological Effects of Pentathiepins on Various Human Cancer Cell Lines and Insights into Their Mode of Action” (International Journal of Molecular Sciences, 2021).
# Where two headings read alike, the source gives them in different places.
# Key:
# Format in all cases: cell-based
# [1] = system: panel of 14 human cancer cell lines; experiment: MTT cell viability assay, whole panel; parameters: key to Cytotoxicity: no impact (0); weak impact (+); strong impact (++); conditions: for IC50: mean over the cell line panel; for Cytotoxicity: summary grade
# Procedure: (§1) Distinct MTT cell viability and crystal violet cell proliferation assays were performed to assess the cytotoxicity of the compounds 1–6 on 14 human cancer cell lines. In the viability assay, cells with intact mitochondria and thus active dehydrogenases are competent to convert MTT to the corresponding insoluble formazan. The formazan can be photometrically detected after solubilization and allows for indirect conclusions about the viability of the cells as an IC50 value. In the crystal violet assay, cells are stained by the binding of the dye to the chromatin, thus allowing for a quantification of biomass that remains adherent after a treatment in comparison with a control after a specific time. Potency is defined as the growth inhibitory concentration 50% (GI50).
# (§2) In addition to performing the cell viability assay under normoxia (19% atmospheric oxygen), incubations were also conducted under hypoxic conditions, i.e., atmospheric oxygen levels of 1% during the treatment for 48 h. Hypoxia is a favorable condition of the tumor microenvironment that is connected with poor outcome. Therefore, the low oxygen condition mimics better the tumor environment. The biological effect of the pentathiepins under this condition provides insight into their dependency for oxygen, which has been postulated a key component in the proposed mechanism of action (Figure 3). Consistent with the proposed mechanism of action for five of the compounds, potency decreased under hypoxic conditions; in fact for 6, the half-maximal inhibitory concentration exceeded the highest tested concentration of 10 µM in four cell lines (Figure 6, Table S3). […] In contrast to the other compounds, in some cell lines, the cytotoxic effects of 1 were more pronounced under oxygen-reduced incubation conditions (Figure 6), indicating a tangential role of oxygen availability for this pentathiepin. Especially for the breast cancer cell line MCF-7, the cytotoxicity increased substantially, indicated by a decrease of the IC50 from >10.0 µM to about 1.0 µM.
# The effect of the pentathiepins on the viability of the cell lines was assessed via an MTT assay, performed as previously described. Healthy and viable cells convert the yellow soluble 3-(4,5-dimethylthiazol-2-yl)-2,5-diphenyltetrazolium bromide to the insoluble purple corresponding formazan, which can be spectrophotometrically measured. For this assay, 5000 cells (1 250 for LCLC-103H) in 0.1 mL of medium were seeded per well of a 96-well plate and incubated at standard conditions for 24 h prior to treatment. A serial dilution of the test compounds was prepared in medium, covering final concentrations from 10.0 to 0.04 µM, and 0.1 mL of the working solution was added to each well in triplicate. After 48 h, 20 µL of a 2.5 mg/mL MTT in PBS solution was pipetted into each well and further incubated for 4 h at standard conditions. Thereafter, medium was replaced with 50 µL DMSO, and the plates were put on a shaker for 5 min and subsequently read at λ = 570 nm, with a SpectraMax 384plus (Molecular Devices, Sunnyvale, CA, USA). The cell viabilities of the treatment conditions were calculated in relation to a solvent control sample. The absolute IC50 was calculated via nonlinear regression followed by interpolation of the dose–response graphs in Prism 7 (GraphPad, San Diego, CA, USA). The IC90 was derived from the IC50 by using the slope factor of the dose–response graph with the tool QuickCalcs from GraphPad (GraphPad Software, San Diego, CA, USA). […]
# Siso = experiment: MTT cell viability assay; conditions: Homo sapiens; for IC50: 48 h; for IC90: calculated via GraphPad QuickCalcs from MTT IC50 and slope factor
# Procedure: as §1, §2
# (§3) The effect of the pentathiepins on the viability of the cell lines was assessed via an MTT assay, performed as previously described. Healthy and viable cells convert the yellow soluble 3-(4,5-dimethylthiazol-2-yl)-2,5-diphenyltetrazolium bromide to the insoluble purple corresponding formazan, which can be spectrophotometrically measured. For this assay, 5000 cells (1 250 for LCLC-103H) in 0.1 mL of medium were seeded per well of a 96-well plate and incubated at standard conditions for 24 h prior to treatment. A serial dilution of the test compounds was prepared in medium, covering final concentrations from 10.0 to 0.04 µM, and 0.1 mL of the working solution was added to each well in triplicate. After 48 h, 20 µL of a 2.5 mg/mL MTT in PBS solution was pipetted into each well and further incubated for 4 h at standard conditions. Thereafter, medium was replaced with 50 µL DMSO, and the plates were put on a shaker for 5 min and subsequently read at λ = 570 nm, with a SpectraMax 384plus (Molecular Devices, Sunnyvale, CA, USA). The cell viabilities of the treatment conditions were calculated in relation to a solvent control sample. The absolute IC50 was calculated via nonlinear regression followed by interpolation of the dose–response graphs in Prism 7 (GraphPad, San Diego, CA, USA). The IC90 was derived from the IC50 by using the slope factor of the dose–response graph with the tool QuickCalcs from GraphPad (GraphPad Software, San Diego, CA, USA).
# A2780cis = experiment: MTT cell viability assay; conditions: Homo sapiens, 48 h
# Procedure: as §1, §2, §3
# LCLC-103H = experiment: MTT cell viability assay; conditions: Homo sapiens, 48 h
# Procedure: as §1, §2, §3
# HAP-1.KO.GPx1 = experiment: MTT cell viability assay; conditions: Homo sapiens; for IC50: 48 h; for IC90: calculated via GraphPad QuickCalcs from MTT IC50 and slope factor
# Procedure: as §1, §2, §3
# RT-4 = experiment: MTT cell viability assay; conditions: Homo sapiens, 48 h
# Procedure: as §1, §2, §3
# A2780 = experiment: MTT cell viability assay; conditions: Homo sapiens; for IC50: 48 h; for IC90: calculated via GraphPad QuickCalcs from MTT IC50 and slope factor
# Procedure: as §1, §2, §3
# HAP-1 = experiment: MTT cell viability assay; conditions: Homo sapiens; for IC50: HAP1, 48 h; for IC90: HAP1, calculated via GraphPad QuickCalcs from MTT IC50 and slope factor
# Procedure: as §1, §2, §3
# RT-112 = experiment: MTT cell viability assay; conditions: Homo sapiens, 48 h
# Procedure: as §1, §2, §3
# PATU-8902 = experiment: MTT cell viability assay; conditions: Homo sapiens; for IC50: 48 h; for IC90: calculated via GraphPad QuickCalcs from MTT IC50 and slope factor
# Procedure: as §1, §2, §3
# [2] = Homo sapiens, hypoxic, read-out: IC50 MTT-H, mean per compound
# [3] = Homo sapiens, normoxic, read-out: IC50 MTT-N, mean per compound
# [4] = hypoxic (1% O2), read-out: IC50 MTT-H mean
# [5] = normoxic (19% O2), read-out: IC50 MTT-N mean
SMILES,"IC50 [1, 2]","IC50 [1, 3]",Cytotoxicity [1],IC50 (Siso; [4]),IC50 (Siso; [5]),IC90 (Siso),IC50 (A2780cis; [4]),IC50 (A2780cis; [5]),IC50 (LCLC-103H; [4]),IC50 (LCLC-103H; [5]),IC50 (HAP-1.KO.GPx1; [4]),IC50 (HAP-1.KO.GPx1; [5]),IC90 (HAP-1.KO.GPx1),IC50 (RT-4; [4]),IC50 (RT-4; [5]),IC50 (A2780; [4]),IC50 (A2780; [5]),IC90 (A2780),IC50 (HAP-1; [4]),IC50 (HAP-1; [5]),further results
"CCOc1c2c(c3ccc(C(=O)N(CC)CC)cn13)SSSSS2 [Compound 4, 6-Ethoxy-N,N’-diethyl-[1,2,3,4,5]pentathiepino[6,7-a]indolizine-9-carboxamide]",2.05 µM,1.01 µM,++,4.25 µM,0.934 µM,1.93 µM,0.544 µM,0.399 µM,0.827 µM,0.674 µM,1.19 µM,0.322 µM,0.64 µM,2.22 µM,1.31 µM,0.799 µM,0.213 µM,0.61 µM,0.832 µM,0.263 µM,IC90 (HAP-1): 0.51 µM; IC50 (RT-112; [4]): 1.78 µM; IC50 (RT-112; [5]): 1.2 µM; IC50 (PATU-8902; [4]): 1.27 µM; IC50 (PATU-8902; [5]): 0.823 µM; IC90 (PATU-8902): 6 µM
"CCOc1c2c(c3cnc4[nH]c(-c5ccc(OC)cc5)cc4n13)SSSSS2 [Compound 1, 11-Ethoxy-2-(4-methoxyphenyl)-3H-[1,2,3,4,5]pentathiepino[6′,7′:3,4]pyrrolo[1,2-a]pyrrolo[2,3-e]pyrazine]",0.487 µM,0.72 µM,++,0.602 µM,0.414 µM,0.77 µM,0.411 µM,0.41 µM,0.552 µM,1.42 µM,0.428 µM,0.358 µM,0.55 µM,0.522 µM,1.93 µM,0.443 µM,0.692 µM,1.87 µM,0.384 µM,0.398 µM,"IC50 ([1]; normoxic, read-out: IC50 MTT-N, mean per compound): 0.716 µM; IC90 (HAP-1): 0.71 µM; IC50 (RT-112; [4]): 0.306 µM; IC50 (RT-112; [5]): 0.399 µM; IC50 (PATU-8902; [4]): 0.543 µM; IC50 (PATU-8902; [5]): 0.579 µM; IC90 (PATU-8902): 1.22 µM"
"CCOc1c2c(c3ccc(C(=O)N4CCCCC4)cn13)SSSSS2 [Compound 2, (6-Ethoxy-[1,2,3,4,5]pentathiepino[6,7-a]indolizin-9-yl)(piperidinyl)methanone]",2.19 µM,1.38 µM,+,2.96 µM,1.38 µM,2.7 µM,0.637 µM,0.652 µM,1.54 µM,1.36 µM,1.19 µM,0.644 µM,1.2 µM,5.9 µM,1.59 µM,0.804 µM,0.43 µM,1 µM,0.847 µM,0.6 µM,IC90 (HAP-1): 1.18 µM; IC50 (RT-112; [4]): 1.72 µM; IC50 (RT-112; [5]): 1.34 µM; IC50 (PATU-8902; [4]): 3.15 µM; IC50 (PATU-8902; [5]): 1.72 µM; IC90 (PATU-8902): 6.52 µM
